Test results: patent publication US10604511B2, “N-[(pyrazinyloxy)propanyl]benzamides as antagonists of orexin subtype 1 receptor activity” (Boehringer Ingelheim International GmbH, priority 2016, dated 2020)
Like-named read-outs stand apart in the source and are kept apart here.

Tests used:
[1] = molecular target: T1, human Orexin 1 receptor (Homo sapiens, UniProt O43613); assay: Assay A: in vitro testing of OX1R potency, OX1R IP1; type: cell-based; conditions: Table 3, read-out: Assay A OX1R Kb [nM] (Orexin A concentration)
T1 construct: stably expressing the full-length human Orexin 1 receptor; expressed in transfected cells; host or cells: CHO-K1 (CHO-K1/hOx1)
T1 sequence (O43613 1-425): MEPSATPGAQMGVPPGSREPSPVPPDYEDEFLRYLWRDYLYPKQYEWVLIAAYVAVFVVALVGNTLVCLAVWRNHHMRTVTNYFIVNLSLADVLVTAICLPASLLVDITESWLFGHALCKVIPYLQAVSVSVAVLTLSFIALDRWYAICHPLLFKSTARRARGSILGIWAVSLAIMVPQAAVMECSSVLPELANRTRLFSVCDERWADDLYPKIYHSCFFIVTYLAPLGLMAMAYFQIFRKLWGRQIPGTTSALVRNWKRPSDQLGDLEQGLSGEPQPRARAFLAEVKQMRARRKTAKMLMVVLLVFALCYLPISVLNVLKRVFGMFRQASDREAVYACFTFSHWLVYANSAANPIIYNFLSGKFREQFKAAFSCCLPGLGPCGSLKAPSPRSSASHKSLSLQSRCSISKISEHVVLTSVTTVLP
Excerpt: Chem. Genomics 2009, 3, 22-32. […] AssayExplorer (Accelrys). […] Sci. 1993, 14(4), 110-112).

[2] = molecular target: T2, OX2R (Homo sapiens, UniProt O43614); assay: OX2R in vitro potency as reported in WO2016/034882; type: cell-based; conditions: Table 1 of WO2016/034882
T2 sequence (O43614 1-444): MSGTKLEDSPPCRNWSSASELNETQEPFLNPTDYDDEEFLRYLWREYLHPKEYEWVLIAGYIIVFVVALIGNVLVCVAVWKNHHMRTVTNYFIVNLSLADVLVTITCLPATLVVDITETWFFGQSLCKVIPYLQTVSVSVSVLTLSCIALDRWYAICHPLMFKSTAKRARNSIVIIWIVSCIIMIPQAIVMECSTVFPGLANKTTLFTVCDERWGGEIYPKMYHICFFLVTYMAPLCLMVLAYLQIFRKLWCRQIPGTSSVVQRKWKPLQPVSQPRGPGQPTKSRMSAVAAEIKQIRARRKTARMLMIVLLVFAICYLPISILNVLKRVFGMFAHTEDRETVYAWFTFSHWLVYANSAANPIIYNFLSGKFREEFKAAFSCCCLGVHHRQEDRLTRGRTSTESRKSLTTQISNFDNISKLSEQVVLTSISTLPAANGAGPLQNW

[3] = Assay C: metabolic stability in human liver microsomes (human MST); type: in vitro ADME; conditions: for half-life at 1 μM: pH 7.6, pooled human liver microsomes, 1 μM test compound, 37° C., read-out: Assay C: Human MST t1/2; for stability in human liver microsomes compared with closest prior art compounds in WO2016/034882 (in words): versus closest prior art examples of WO2016/034882
Protocol: C. Assessment of Metabolic Stability in Human Liver Microsomes (Human MST) The metabolic stability of the compounds according to the invention may be investigated as follows: The metabolic degradation of the test compound is assayed at 37° C. with pooled human liver microsomes. The final incubation volume of 100 μL per time point contains TRIS buffer pH 7.6 at room temperature (0.1 M), MgCl2 (5 mM), microsomal protein (1 mg/mL) and the test compound at a final concentration of 1 μM. Following a short pre-incubation period at 37° C., the reactions are initiated by addition of beta-nicotinamide adenine dinucleotide phosphate, reduced form (NADPH, 1 mM), and terminated by transferring an aliquot into solvent after different time points. After centrifugation (10000 g, 5 min), an aliquot of the supernatant is assayed by LC-MS/MS for the amount of parent compound. The half-life (t1/2) is determined by the slope of the semi-logarithmic plot of the concentration-time profile.

[4] = molecular target: T2, OX2R; conditions: Table 3 of WO2016/034882, cited from earlier work

| Compound | Kb ([1]; 0.5 nM Orexin A) [nM] | OX2R IC50/OX1R IC50 [2] | half-life at 1 μM [3] [h] | Kb ([1]; 50 nM Orexin A) [nM] | stability in human liver microsomes compared with closest prior art compounds in WO2016/034882 (in words) [3] | OX2R pIC50 [4] | IC50 ([4]; read-out: OX2R IC50 (corresponds to pIC50) (converted)) [nM] |
| --- | --- | --- | --- | --- | --- | --- | --- |
| CC[C@@H](CNc1cnc(C(F)(F)F)cn1)N(C)C(=O)c1cc(Cl)ccc1-n1nccn1 [Ex 40 in WO2016/ 034882, reference compound] | 0.73 | Table 1: 156 | – | – | – | – | – |
| CC[C@@H](CNc1cnc(C(F)(F)F)cn1)N(CC)C(=O)c1nc(C)ccc1-n1nccn1 [Ex 70 in WO2016/ 034882] | – | – | 0.333 | 0.14 | – | 5.3 | > 5000 |
| CCN(C(=O)c1ccccc1-n1nccn1)[C@@H](C)COc1cnc(C(F)(F)F)cn1 [Example 1] | 0.97 | – | > 2.17 | – | – | – | – |
| CCN(C(=O)c1ccc(F)cc1-n1nccn1)[C@@H](C)COc1cnc(C(F)(F)F)cn1 [Example 2] | 4.5 | – | > 2.17 | – | – | – | – |
| CCN(C(=O)c1cc(F)ccc1-n1nccn1)[C@@H](C)COc1cnc(C(F)(F)F)cn1 [Example 3] | 2.1 | – | > 2.17 | – | – | – | – |
| CCN(C(=O)c1cc(F)c(F)cc1-n1nccn1)[C@@H](C)COc1cnc(C(F)(F)F)cn1 [Example 4] | 5.5 | – | > 2.17 | – | – | – | – |
| CCN(C(=O)c1cc(F)cc(F)c1-n1nccn1)[C@@H](C)COc1cnc(C(F)(F)F)cn1 [Example 6] | 3 | – | > 2.17 | – | – | – | – |
| CCN(C(=O)c1cc(C(F)(F)F)ccc1-n1nccn1)[C@@H](C)COc1cnc(C(F)(F)F)cn1 [Example 7] | 13 | – | > 2.17 | – | – | – | – |
| CCN(C(=O)c1cc(OC)ccc1-n1nccn1)[C@@H](C)COc1cnc(C(F)(F)F)cn1 [Example 8] | – | – | 1.22 | 0.8 | – | – | – |
| CCN(C(=O)c1ccccc1-n1cccn1)[C@@H](C)COc1cnc(C(F)(F)F)cn1 [Example 9] | 5.4 | – | 0.417 | – | – | – | – |
| CCN(C(=O)c1ccc(C)cc1-n1nccn1)[C@@H](C)COc1cnc(C(F)(F)F)cn1 [Example 10] | – | – | 1.33 | 0.44 | markedly improved stability | – | – |
| CCN(C(=O)c1cccc(F)c1-c1nnc(C)o1)[C@@H](C)COc1cnc(C(F)(F)F)cn1 [Example 12] | 12 | – | > 2.17 | – | – | – | – |
| CCN(C(=O)c1ccc(C)cc1-c1nnc(C)o1)[C@@H](C)COc1cnc(C(F)(F)F)cn1 [Example 14] | 4.6 | – | 1.48 | – | – | – | – |

Further lines, with some results ahead:

| Kb ([1]; 0.5 nM Orexin A) [nM] | OX2R IC50/OX1R IC50 [2] | half-life at 1 μM [3] [h] | Kb ([1]; 50 nM Orexin A) [nM] | stability in human liver microsomes compared with closest prior art compounds in WO2016/034882 (in words) [3] | Compound | OX2R pIC50 [4] | IC50 ([4]; read-out: OX2R IC50 (corresponds to pIC50) (converted)) [nM] |
| --- | --- | --- | --- | --- | --- | --- | --- |
| 1.3 | – | 1.52 | 2.3 | – | CCN(C(=O)c1cccc(C)c1-c1nnc(C)o1)[C@@H](C)COc1cnc(C(F)(F)F)cn1 [Example 15] | – | – |
| 1.7 | – | 1.18 | 1.8 | – | CCN(C(=O)c1ccc(OC)cc1-n1nccn1)[C@@H](C)COc1cnc(C(F)(F)F)cn1 [Example 18] | – | – |
| 2.1 | – | > 2.17 | 2.1 | – | CCN(C(=O)c1cccc(F)c1-n1nccn1)[C@@H](C)COc1cnc(C(F)(F)F)cn1 [Example 22] | – | – |
| 1.1 | – | 1.52 | 1 | – | CCN(C(=O)c1ccc(Cl)cc1-n1nccn1)[C@@H](C)COc1cnc(C(F)(F)F)cn1 [Example 24] | – | – |
| 12 | – | 0.383 | – | – | CCN(C(=O)c1ccc(C(F)(F)F)cc1-n1nccn1)[C@@H](C)COc1cnc(C(F)(F)F)cn1 [Example 25] | – | – |
| 1 | – | > 2.17 | – | markedly improved stability | CCN(C(=O)c1ccc(F)cc1-c1ncccn1)[C@@H](C)COc1cnc(C(F)(F)F)cn1 [Example 27] | – | – |
| 3.9 | – | 0.65 | – | – | CCN(C(=O)c1ccccc1-c1nc(C)no1)[C@@H](C)COc1cnc(C(F)(F)F)cn1 [Example 28] | – | – |
| 0.64 | – | > 2.17 | 0.51 | markedly improved stability | CCN(C(=O)c1cccc(F)c1-c1ncccn1)[C@@H](C)COc1cnc(C(F)(F)F)cn1 [Example 29] | – | – |
| 0.55 | – | > 2.17 | 0.63 | markedly improved stability | CCN(C(=O)c1ccccc1-c1ncccn1)[C@@H](C)COc1cnc(C(F)(F)F)cn1 [Example 30] | – | – |
| 2.1 | – | 1.1 | – | – | CCN(C(=O)c1ccccc1-c1noc(C)n1)[C@@H](C)COc1cnc(C(F)(F)F)cn1 [Example 32] | – | – |
| 2.5 | – | > 2.17 | – | – | CCN(C(=O)c1ccc(F)c(F)c1-n1nccn1)[C@@H](C)COc1cnc(C(F)(F)F)cn1 [Example 33] | – | – |
